Test results as given in ChEMBL document CHEMBL4145553, “Design, synthesis, and biological evaluation of novel amide and hydrazide based thioether analogs targeting Histone deacteylase (HDAC) enzymes” (Eur J Med Chem, 2018).

What was measured:
Format in all cases: functional
MDA-MB-435 [1] = assay: Cell cycle arrest in human MDA-MB-435 cells assessed as accumulation at S-phase by propidium iodide staining based flow cytometry (reference value: 26.46%)
OVCAR-4 = assay: Growth inhibition of human OVCAR4 cells assessed as cell growth at 10^-5 M incubated for 48 hrs by sulforhodamine B assay relative to control; details: OVCAR-4, 48 h, read-out: Activity
UACC-257 [2] = assay: Growth inhibition of human UACC257 cells assessed as cell growth at 10^-5 M incubated for 48 hrs by sulforhodamine B assay relative to control; details: UACC-257, 48 h, read-out: Activity
HL-60(TB) = assay: Growth inhibition of human HL-60(TB) cells assessed as cell growth at 10^-7 M incubated for 48 hrs by sulforhodamine B assay relative to control; details: HL-60, 48 h, read-out: Activity
RXF 393 = assay: Growth inhibition of human RXF393 cells assessed as cell growth at 10^-5 M incubated for 48 hrs by sulforhodamine B assay relative to control; details: RXF 393, 48 h, read-out: Activity
RPMI-8226 = assay: Growth inhibition of human RPMI8226 cells assessed as cell growth at 10^-4 M incubated for 48 hrs by sulforhodamine B assay relative to control; details: RPMI-8226, 48 h, read-out: Activity
OVCAR-5 = assay: Growth inhibition of human OVCAR5 cells assessed as cell growth at 10^-7 M incubated for 48 hrs by sulforhodamine B assay relative to control; details: OVCAR-5, 48 h, read-out: Activity
CCRF-CEM [3] = assay: Growth inhibition of human CCRF-CEM cells assessed as cell growth at 10^-7 M incubated for 48 hrs by sulforhodamine B assay relative to control; details: read-out: Activity
K562 = assay: Growth inhibition of human K562 cells assessed as cell growth at 10^-7 M incubated for 48 hrs by sulforhodamine B assay relative to control; details: K562, 48 h, read-out: Activity
MDA-MB-435 [4] = assay: Growth inhibition of human MDA-MB-435 cells incubated for 48 hrs by sulforhodamine B assay; details: MDA-MB-435, 48 h
KM12 = assay: Growth inhibition of human KM12 cells assessed as cell growth at 10^-8 M incubated for 48 hrs by sulforhodamine B assay relative to control; details: KM12, 48 h, read-out: Activity
TK-10 = assay: Growth inhibition of human TK10 cells assessed as cell growth at 10^-8 M incubated for 48 hrs by sulforhodamine B assay relative to control; details: TK-10, 48 h, read-out: Activity
UACC-257 [5] = assay: Growth inhibition of human UACC257 cells assessed as cell growth at 10^-7 M incubated for 48 hrs by sulforhodamine B assay relative to control; details: UACC-257, 48 h, read-out: Activity
MOLT-4 = assay: Growth inhibition of human MOLT4 cells assessed as cell growth at 10^-6 M incubated for 48 hrs by sulforhodamine B assay relative to control; details: MOLT-4, 48 h, read-out: Activity
HCT-116 = assay: Growth inhibition of human HCT116 cells assessed as cell growth at 10^-5 M incubated for 48 hrs by sulforhodamine B assay relative to control; details: HCT-116, 48 h, read-out: Activity
HCT-15 [6] = assay: Growth inhibition of human HCT15 cells assessed as cell growth at 10^-6 M incubated for 48 hrs by sulforhodamine B assay relative to control; details: HCT-15, 48 h, read-out: Activity
SK-MEL-2 = assay: Growth inhibition of human SK-MEL-2 cells assessed as cell growth at 10^-6 M incubated for 48 hrs by sulforhodamine B assay relative to control; details: SK-MEL-2, 48 h, read-out: Activity
CCRF-CEM [7] = assay: Growth inhibition of human CCRF-CEM cells assessed as cell growth at 10^-4 M incubated for 48 hrs by sulforhodamine B assay relative to control; details: read-out: Activity
SF-539 = assay: Growth inhibition of human SF539 cells assessed as cell growth at 10^-8 M incubated for 48 hrs by sulforhodamine B assay relative to control; details: SF-539, 48 h, read-out: Activity
SNB-75 = assay: Growth inhibition of human SNB75 cells assessed as cell growth at 10^-8 M incubated for 48 hrs by sulforhodamine B assay relative to control; details: SNB-75, 48 h, read-out: Activity
HCC 2998 = assay: Growth inhibition of human HCC2998 cells assessed as cell growth at 10^-7 M incubated for 48 hrs by sulforhodamine B assay relative to control; details: HCC 2998, 48 h, read-out: Activity
SK-MEL-5 [8] = assay: Growth inhibition of human SK-MEL-5 cells incubated for 48 hrs by sulforhodamine B assay; details: SK-MEL-5, 48 h
NCI/ADR-RES = assay: Growth inhibition of human NCI/ADR-RES cells assessed as cell growth at 10^-8 M incubated for 48 hrs by sulforhodamine B assay relative to control; details: read-out: Activity
HCT-15 [9] = assay: Growth inhibition of human HCT15 cells assessed as cell growth at 10^-4 M incubated for 48 hrs by sulforhodamine B assay relative to control; details: HCT-15, 48 h, read-out: Activity
SK-MEL-5 [10] = assay: Growth inhibition of human SK-MEL-5 cells assessed as cell growth at 10^-7 M incubated for 48 hrs by sulforhodamine B assay relative to control; details: SK-MEL-5, 48 h, read-out: Activity
MDA-MB-435 [11] = assay: Antiproliferative activity against human MDA-MB-435 cells after 24 hrs by MTT assay; details: for GI50: Homo sapiens, MDA-MB-435, 24 h
UO-31 = assay: Growth inhibition of human UO31 cells incubated for 48 hrs by sulforhodamine B assay; details: UO-31, 48 h
SR = assay: Growth inhibition of human SR cells assessed as cell growth at 10^-5 M incubated for 48 hrs by sulforhodamine B assay relative to control; details: read-out: Activity
MDA-MB-231 = assay: Growth inhibition of human MDA-MB-231 cells assessed as cell growth at 10^-5 M incubated for 48 hrs by sulforhodamine B assay relative to control; details: MDA-MB-231, 48 h, read-out: Activity
SK-OV-3 = assay: Growth inhibition of human SKOV3 cells assessed as cell growth at 10^-4 M incubated for 48 hrs by sulforhodamine B assay relative to control; details: SK-OV-3, 48 h, read-out: Activity
IGROV-1 = assay: Growth inhibition of human IGROV1 cells assessed as cell growth at 10^-8 M incubated for 48 hrs by sulforhodamine B assay relative to control; details: IGROV-1, 48 h, read-out: Activity
[12] = read-out: LC50 (the source's name)
[13] = read-out: pLC50 (the source's name) (converted)

Work on `CCS/C(Nc1ccccc1)=C(\C#N)C(=O)Nc1ccc(OC)cc1` yielded an Activity (MDA-MB-435 [1]) of 19.26%, a growth at 10 µM (OVCAR-4) of 45% and a growth at 10 µM (UACC-257 [2]) of 56%. For the same compound, the growth at 0.1 µM (HL-60(TB)) was 89%, the growth at 10 µM (RXF 393) was -10% and the growth at 100 µM (RPMI-8226) was 5%. It also gave a growth at 0.1 µM (OVCAR-5) of 95%, a growth at 0.1 µM (CCRF-CEM [3]) of 83% and a growth at 0.1 µM (K562) of 88%. For the same compound, the GI50 (MDA-MB-435 [4]; read-out: GI50) was 0.37 µM, the CC50 (MDA-MB-435 [4]; [12]) was over 100 µM and the TGI (MDA-MB-435 [4]; read-out: TGI) was 1.89 µM. It also gave a GI50 (MDA-MB-435 [4]; read-out: pGI50 (converted)) of 0.372 µM, a CC50 (MDA-MB-435 [4]; [13]) of over 100 µM and a TGI (MDA-MB-435 [4]; read-out: pTGI (converted)) of 1.91 µM. For the same compound, the growth at 0.01 µM (KM12) was 100%, the growth at 0.01 µM (TK-10) was 104% and the growth at 0.1 µM (UACC-257 [5]) was 95%. The growth at 1 µM (MOLT-4) was 71%, the growth at 10 µM (HCT-116) was 3% and the growth at 1 µM (HCT-15 [6]) was 53%. The growth at 1 µM (SK-MEL-2) was 86%, the growth at 100 µM (CCRF-CEM [7]) was 7% and the growth at 0.01 µM (SF-539) was 94%. It also gave a growth at 0.01 µM (SNB-75) of 94%, a growth at 0.1 µM (HCC 2998) of 92% and a GI50 (SK-MEL-5 [8]; read-out: GI50) of 2.2 µM. For the same compound, the CC50 (SK-MEL-5 [8]; [12]) was 68.2 µM, the TGI (SK-MEL-5 [8]; read-out: TGI) was 8.19 µM and the GI50 (SK-MEL-5 [8]; read-out: pGI50 (converted)) was 2.19 µM. It also gave a CC50 (SK-MEL-5 [8]; [13]) of 67.6 µM, a TGI (SK-MEL-5 [8]; read-out: pTGI (converted)) of 8.13 µM and a growth at 0.01 µM (NCI/ADR-RES) of 100%. The growth at 100 µM (HCT-15 [9]) was 4%, the growth at 0.1 µM (SK-MEL-5 [10]) was 90% and the Activity (MDA-MB-435 [11]) was “Dose-dependent effect”. For the same compound, the GI50 (MDA-MB-435 [11]) was 0.37 µM, the GI50 (UO-31; read-out: GI50) was 5.49 µM and the CC50 (UO-31; [12]) was over 100 µM. It also gave a TGI (UO-31; read-out: TGI) of over 100 µM, a GI50 (UO-31; read-out: pGI50 (converted)) of 5.5 µM and a CC50 (UO-31; [13]) of over 100 µM. It also gave a TGI (UO-31; read-out: pTGI) of over 100 µM, a growth at 10 µM (SR) of 21% and a growth at 10 µM (MDA-MB-231) of 23%. It also gave a growth at 100 µM (SK-OV-3) of -4% and a growth at 0.01 µM (IGROV-1) of 103%.

`CCS/C(Nc1ccccc1)=C(\C#N)C(=O)N/N=C\c1ccc(Cl)cc1Cl` was tested, and the Activity (MDA-MB-435 [1]) was 19.16%, the growth at 10 µM (OVCAR-4) was 42% and the growth at 10 µM (UACC-257 [2]) was 61%. The growth at 0.1 µM (HL-60(TB)) was 91%, the growth at 10 µM (RXF 393) was -5% and the growth at 100 µM (RPMI-8226) was 6%. For the same compound, the growth at 0.1 µM (OVCAR-5) was 96%, the growth at 0.1 µM (CCRF-CEM [3]) was 95% and the growth at 0.1 µM (K562) was 90%. It also gave a GI50 (MDA-MB-435 [4]; read-out: GI50) of 0.419 µM, a CC50 (MDA-MB-435 [4]; [12]) of 9.26 µM and a TGI (MDA-MB-435 [4]; read-out: TGI) of 2.23 µM. For the same compound, the GI50 (MDA-MB-435 [4]; read-out: pGI50 (converted)) was 0.417 µM, the CC50 (MDA-MB-435 [4]; [13]) was 9.33 µM and the TGI (MDA-MB-435 [4]; read-out: pTGI (converted)) was 2.24 µM. The growth at 0.01 µM (KM12) was 101%, the growth at 0.01 µM (TK-10) was 93% and the growth at 0.1 µM (UACC-257 [5]) was 94%. The growth at 1 µM (MOLT-4) was 84%, the growth at 10 µM (HCT-116) was 7% and the growth at 1 µM (HCT-15 [6]) was 77%. For the same compound, the growth at 1 µM (SK-MEL-2) was 86%, the growth at 100 µM (CCRF-CEM [7]) was 11% and the growth at 0.01 µM (SF-539) was 105%. It also gave a growth at 0.01 µM (SNB-75) of 88%, a growth at 0.1 µM (HCC 2998) of 100% and a GI50 (SK-MEL-5 [8]; read-out: GI50) of 2.28 µM. It also gave a CC50 (SK-MEL-5 [8]; [12]) of over 100 µM, a TGI (SK-MEL-5 [8]; read-out: TGI) of 8.54 µM and a GI50 (SK-MEL-5 [8]; read-out: pGI50 (converted)) of 2.29 µM. It also gave a CC50 (SK-MEL-5 [8]; [13]) of over 100 µM, a TGI (SK-MEL-5 [8]; read-out: pTGI (converted)) of 8.51 µM and a growth at 0.01 µM (NCI/ADR-RES) of 98%. The growth at 100 µM (HCT-15 [9]) was 11%, the growth at 0.1 µM (SK-MEL-5 [10]) was 90% and the Activity (MDA-MB-435 [11]) was “Dose-dependent effect”. The GI50 (MDA-MB-435 [11]) was 0.42 µM, the GI50 (UO-31; read-out: GI50) was 6.91 µM and the CC50 (UO-31; [12]) was over 100 µM. It also gave a TGI (UO-31; read-out: TGI) of over 100 µM, a GI50 (UO-31; read-out: pGI50 (converted)) of 6.92 µM and a CC50 (UO-31; [13]) of over 100 µM. The TGI (UO-31; read-out: pTGI) was over 100 µM, the growth at 10 µM (SR) was 28% and the growth at 10 µM (MDA-MB-231) was 32%. For the same compound, the growth at 100 µM (SK-OV-3) was 12% and the growth at 0.01 µM (IGROV-1) was 106%.
